Measurements from patent publication US20230295162A1 (EÖTVÖS LORÁND TUDOMÁNYEGYETEM, priority 2020, published 2023).

Key:
[1] = system: EBC-1 lung cancer cell line; experiment: High-throughput screening, CellTiter-Glo cell viability assay at 100 nM; assay type: cell-based, human; details: Homo sapiens, EBC-1, HTS, compounds at 100 nM, 72 h, read-out: cytotoxicity expressed in IC50, EBC-1 (results of High throughput screening)
Experimental: (§1) EBC-1 (obtained from JRCB, https://cellbank.nibiohn.go.jp/english/) and H2228 (obtained from ATCC https://www.lgcstandards-atcc.org/) cell lines were maintained according to the instructions provided by JRCB and ATCC in a 5% CO2 humidified incubator maintained at 37° C. temperature. Effect of compounds on cell viability was measured via CellTiter-Glo® luminescent cell viability assay (Promega, Madison, WI, USA). Cells were plated at 1000 cells/well onto a flat-bottomed, white 96 well plate (BRANDplates, cat. no.: 781965). After 24 h, cells were treated for 72 h with the compounds at 100 nM concentration. After the treatment, medium was removed and CellTiter-Glo® reagent was added. Untreated cells were used as control. The luminescence signal was recorded using a microplate reader (BioTek Synergy 2 Multi-Mode Reader, BioTek, Winooski, VT, USA). Cell viability data (% of untreated control cells) was evaluated with Microsoft Excel.

[2] = system: H2228 lung cancer cell line; experiment: as above; assay type: cell-based, human; details: Homo sapiens, NCI-H2228, HTS, compounds at 100 nM, 72 h, read-out: cytotoxicity expressed in IC50, H2228 (results of High throughput screening)
Experimental: as §1

[3] = system: PANC-1 (human pancreatic carcinoma) cells; experiment: Impedance-based viability assay (xCELLigence SP), long treatment; assay type: cell-based; details: 72 h, read-out: cytotoxicity expressed in IC50, PANC-1
Excerpt: (Gibco®/Invitrogen Corporation, New York, NY, USA).
Data obtained from each experiment represent mathematical averages.

Row | Compound | IC50 [1] [nM] | IC50 [2] [nM] | IC50 [3] [nM]
1 | O=C1C2=C(CCN(Cc3cccc(F)c3)C2)N2CCN=C2N1Cc1ccc([N+](=O)[O-])cc1F [I/49] | < 100 | < 100 | 
2 | [N-]=[N+]=Nc1ccc(CN2CCC3=C(C2)C(=O)N(CC2CNC2)C2=NCCN23)cc1 [I/118] | > 100 | > 100 | 
3 | [N-]=[N+]=Nc1ccc(CN2CCC3=C(C2)C(=O)N(CC2CCNCC2)C2=NCCN23)cc1 [I/119] | > 100 | > 100 | 
4 | O=C1C2=C(CCN(CC3CCCN3)C2)N2CCN=C2N1Cc1ccc(F)cc1 (stereo not shown) [I/100] | > 100 | > 100 | 
5 | O=C1C2=C(CCN(Cc3ccccc3)C2)N2CCN=C2N1Cc1ccc(Br)cc1 [I/41] | > 100 | < 100 | 
6 | Nc1ccc(CN2CCC3=C(C2)C(=O)N(Cc2ccc(N)cc2)C2=NCCN23)cc1 [I/85] | > 100 | > 100 | 
7 | Cc1ccccc1CN1C(=O)C2=C(CCN(Cc3ccc(F)c(F)c3)C2)N2CCN=C12 [I/14] | > 100 | > 100 | 
8 | COCCOc1cc2ncnc(Nc3cccc(-c4cn(-c5ccc(CN6C(=O)C7=C(CCN(Cc8ccccc8)C7)N7CCN=C67)cc5)nn4)c3)c2cc1OCCOC [I/123] | > 100 | > 100 | 
9 | Nc1ccc(CN2CCC3=C(C2)C(=O)N(CC2CCNCC2)C2=NCCN23)cc1 [I/93] | > 100 | > 100 | 
10 | O=C1C2=C(CCN(Cc3cc(F)cc(F)c3)C2)N2CCN=C2N1Cc1ccc([N+](=O)[O-])cc1F [I/50] | < 100 | < 100 | 
11 | Cc1ccccc1CN1C(=O)C2=C(CCN(Cc3cc(C(F)(F)F)cc(C(F)(F)F)c3)C2)N2CCN=C12 [I/15] | > 100 | > 100 | 
12 | O=C1C2=C(CCN(Cc3ccc(F)c(F)c3F)C2)N2CCN=C2N1Cc1ccc(F)cc1 [I/34] | > 100 | > 100 | 
13 | O=C1C2=C(CCN(Cc3cccc(C(F)(F)F)c3)C2)N2CCN=C2N1Cc1ccc(F)cc1 [I/32] | > 100 | > 100 | 
14 | O=C1C2=C(CCN(Cc3cccc(C(F)(F)F)c3)C2)N2CCN=C2N1Cc1ccc(C(F)(F)F)c(F)c1 [I/33] | > 100 | > 100 | 
15 | [N-]=[N+]=Nc1cccc(CN2C(=O)C3=C(CCN(Cc4ccccc4)C3)N3CCN=C23)c1 [I/102] | > 100 | > 100 | 
16 | Cc1ccccc1CN1C(=O)C2=C(CCN(CC3CCNCC3)C2)N2CCN=C12 [I/94] | > 100 | > 100 | 
17 | [N-]=[N+]=Nc1ccc(CN2C(=O)C3=C(CCN(Cc4cccc(F)c4)C3)N3CCN=C23)cc1 [I/106] | ~100 | > 100 | 
18 | Nc1cccc(CN2CCC3=C(C2)C(=O)N(Cc2ccc(I)cc2)C2=NCCN23)c1 [I/78] | > 100 | > 100 | 
19 | [N-]=[N+]=Nc1ccc(CN2CCC3=C(C2)C(=O)N(Cc2cccc(F)c2)C2=NCCN23)cc1 [I/108] | > 100 | > 100 | 
20 | [N-]=[N+]=Nc1ccc(CN2CCC3=C(C2)C(=O)N(Cc2ccc(N=[N+]=[N-])cc2)C2=NCCN23)cc1 [I/117] | > 100 | > 100 | 
21 | O=C1C2=C(CCN(Cc3cc(F)c(F)c(F)c3)C2)N2CCN=C2N1Cc1ccc(I)cc1 [I/19] | > 100 | > 100 | 

Row | Compound | IC50 [1] [nM] | IC50 [2] [nM] | IC50 [3] [nM]
22 | COc1cc(CN2C(=O)C3=C(CCN(Cc4cccc(F)c4)C3)N3CCN=C23)cc(OC)c1OC [I/57] | > 100 | > 100 | 
23 | O=C1C2=C(CCN(Cc3cccc(F)c3)C2)N2CCN=C2N1Cc1ccc(Br)cc1 [I/4, reference compound] | < 100 | < 100 | 
24 | [N-]=[N+]=Nc1cccc(CN2C(=O)C3=C(CCN(Cc4cccc(F)c4)C3)N3CCN=C23)c1 [I/105] | < 100 | ~100 | 
25 | Cc1ccccc1CN1C(=O)C2=C(CCN(Cc3cccc(N)c3)C2)N2CCN=C12 [I/77] | > 100 | > 100 | 
26 | O=C1C2=C(CCN(Cc3cc(C(F)(F)F)cc(C(F)(F)F)c3)C2)N2CCN=C2N1Cc1ccc(I)cc1 [I/16] | > 100 | > 100 | 
27 | Cc1ccccc1CN1C(=O)C2=C(CCN(CC3CCCN3)C2)N2CCN=C12 (stereo not shown) [I/99] | > 100 | > 100 | 
28 | O=C1C2=C(CCN(Cc3cc(F)cc(F)c3)C2)N2CCN=C2N1Cc1ccc(I)cc1 [I/38] | < 100 | < 100 | 
29 | O=C1C2=C(CCN(Cc3ccc(F)c(F)c3)C2)N2CCN=C2N1Cc1ccc(F)cc1 [I/23] | > 100 | > 100 | 
30 | O=C1C2=C(CCN(Cc3cc(C(F)(F)F)cc(C(F)(F)F)c3)C2)N2CCN=C2N1Cc1ccc(C(F)(F)F)c(F)c1 [I/22] | > 100 | > 100 | 
31 | [N-]=[N+]=Nc1ccc(CN2CCC3=C(C2)C(=O)N(Cc2ccc(C(F)(F)F)c(F)c2)C2=NCCN23)cc1 [I/114] | > 100 | > 100 | 
32 | O=C1C2=C(CCN(Cc3ccc(F)c(F)c3F)C2)N2CCN=C2N1Cc1ccc(I)cc1 [I/18] | > 100 | > 100 | 
33 | O=C1C2=C(CCN(Cc3cc(C(F)(F)F)cc(C(F)(F)F)c3)C2)N2CCN=C2N1Cc1ccc(F)cc1 [I/24] | > 100 | > 100 | 
34 | Cc1ccccc1CN1C(=O)C2=C(CCN(CC3CCNC3)C2)N2CCN=C12 (stereo not shown) [I/97] | > 100 | > 100 | 
35 | Nc1cccc(CN2C(=O)C3=C(CCN(Cc4cccc(F)c4)C3)N3CCN=C23)c1 [I/76] | > 100 | > 100 | 
36 | O=C1C2=C(CCN(Cc3cc(C(F)(F)F)cc(C(F)(F)F)c3)C2)N2CCN=C2N1Cc1ccc(C(F)(F)F)cc1 [I/21] | > 100 | > 100 | 
37 | NCc1cccc(CN2CCC3=C(C2)C(=O)N(Cc2ccc(C(F)(F)F)cc2)C2=NCCN23)c1 [I/69] | > 100 | > 100 | 
38 | O=C1C2=C(CCN(CC3CCNC3)C2)N2CCN=C2N1Cc1ccc(F)cc1 (stereo not shown) [I/98] | > 100 | > 100 | 
39 | Nc1ccc(CN2C(=O)C3=C(CCN(Cc4cc(F)cc(F)c4)C3)N3CCN=C23)cc1 [I/88] | > 100 | > 100 | 
40 | O=C1C2=C(CCN(Cc3ccc(F)c(F)c3)C2)N2CCN=C2N1Cc1ccc(I)cc1 [I/17] | > 100 | > 100 | 
41 | Nc1ccc(CN2CCC3=C(C2)C(=O)N(Cc2ccc(C(F)(F)F)c(F)c2)C2=NCCN23)cc1 [I/82] | > 100 | > 100 | 
42 | Cc1ccccc1CN1C(=O)C2=C(CCN(Cc3cccc(C(F)(F)F)c3)C2)N2CCN=C12 [I/13] | > 100 | > 100 | 

Row | Compound | IC50 [1] [nM] | IC50 [2] [nM] | IC50 [3] [nM]
43 | O=C1C2=C(CCN(CC3CCNCC3)C2)N2CCN=C2N1Cc1ccc(F)cc1 [I/95] | > 100 | > 100 | 
44 | COc1cc(CN2C(=O)C3=C(CCN(Cc4ccccc4)C3)N3CCN=C23)cc(OC)c1OC [I/51] | > 100 | > 100 | 
45 | [N-]=[N+]=Nc1ccc(CN2CCC3=C(C2)C(=O)N(Cc2ccc(C(F)(F)F)cc2)C2=NCCN23)cc1 [I/110] | > 100 | > 100 | 
46 | [N-]=[N+]=Nc1ccc(CN2CCC3=C(C2)C(=O)N(Cc2ccc(F)cc2)C2=NCCN23)cc1 [I/109] |  |  | 8900
47 | O=C1C2=C(CCN(Cc3cc(F)c(F)c(F)c3)C2)N2CCN=C2N1Cc1ccc(F)cc1 [I/25] | > 100 | > 100 | 
48 | O=C1C2=C(CCN(Cc3cccc(C(F)(F)F)c3)C2)N2CCN=C2N1Cc1ccc(I)cc1 [I/15A] | > 100 | > 100 | 
49 | COCCOc1cc2ncnc(Nc3cccc(-c4cn(-c5ccc(CN6CCC7=C(C6)C(=O)N(Cc6ccccc6C)C6=NCCN67)cc5)nn4)c3)c2cc1OCCOC [I/122] | > 100 | > 100 | 
50 | O=C1C2=C(CCN(Cc3ccccc3)C2)N2CCN=C2N1Cc1cccc(I)c1 [I/56] | > 100 | > 100 | 
51 | Nc1cccc(CN2CCC3=C(C2)C(=O)N(Cc2ccc(C(F)(F)F)c(F)c2)C2=NCCN23)c1 [I/80] | > 100 | > 100 | 
52 | Cc1ccccc1CN1C(=O)C2=C(CCN(Cc3ccc(F)cc3C(F)(F)F)C2)N2CCN=C12 [I/12] | > 100 | > 100 | 
53 | Cc1ccccc1CN1C(=O)C2=C(CCN(Cc3ccc(N)cc3)C2)N2CCN=C12 [I/74] | > 100 | > 100 | 
54 | Nc1ccc(CN2CCC3=C(C2)C(=O)N(Cc2cccc(F)c2)C2=NCCN23)cc1 [I/83] | > 100 | > 100 | 
55 | O=C1C2=C(CCN(Cc3ccccc3)C2)N2CCN=C2N1CC1CNC1 [I/90] | > 100 | > 100 | 
56 | Nc1cccc(CN2CCC3=C(C2)C(=O)N(Cc2ccc(C(F)(F)F)cc2)C2=NCCN23)c1 [I/79] | > 100 | > 100 | 
57 | COc1cc(CN2C(=O)C3=C(CCN(Cc4ccc(N=[N+]=[N-])cc4)C3)N3CCN=C23)cc(OC)c1OC [I/116] | > 100 | > 100 | 
58 | O=C1C2=C(CCN(Cc3ccccc3)C2)N2CCN=C2N1CC1CCNCC1 [I/96] | > 100 | > 100 | 
59 | Cc1ccccc1CN1C(=O)C2=C(CCN(CC3CNC3)C2)N2CCN=C12 [I/92] | > 100 | > 100 | 
60 | NCc1ccc(CN2C(=O)C3=C(CCN(Cc4ccccc4)C3)N3CCN=C23)cc1 [I/62] | > 100 | > 100 | 
61 | Nc1ccc(CN2CCC3=C(C2)C(=O)N(CC2CNC2)C2=NCCN23)cc1 [I/91] | > 100 | > 100 | 
